Measured values reported in article PMC10344891, “Continuous enzyme activity assay for high-throughput classification of histone deacetylase 8 inhibitors” (Exploration of Targeted Anti-tumor Therapy, 2023).
Structures can show the parent of a compound that is named as a salt. Where two headings read alike, the source gives them in different places.

Experiments:
[1] = target: T1, human KDAC8 (Homo sapiens, UniProt Q9BY41); assay: Michaelis-Menten kinetics with the continuous KDAC8 assay; format: biochemical; design: full-length human KDAC8 was produced in E. coli BL21 (DE3); His6-SUMO (N, cleaved yes); made in house; host or cells: E. coli BL21 (DE3), pET14b vector; conditions: n = 3
T1 sequence (Q9BY41 1-377): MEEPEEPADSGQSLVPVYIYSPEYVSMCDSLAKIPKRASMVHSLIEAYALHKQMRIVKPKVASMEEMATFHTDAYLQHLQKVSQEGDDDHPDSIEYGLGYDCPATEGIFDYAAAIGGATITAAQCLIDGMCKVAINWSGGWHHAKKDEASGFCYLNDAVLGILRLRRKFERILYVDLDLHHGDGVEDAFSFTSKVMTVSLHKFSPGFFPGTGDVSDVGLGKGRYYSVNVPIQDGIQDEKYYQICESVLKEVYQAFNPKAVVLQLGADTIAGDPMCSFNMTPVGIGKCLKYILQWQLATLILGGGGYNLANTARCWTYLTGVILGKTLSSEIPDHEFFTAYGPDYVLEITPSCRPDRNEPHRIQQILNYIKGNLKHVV
Protocol: The measurements were carried out in a black 96-well microtiter plate (Greiner) at 30°C in assay buffer (see above). A serial two-fold dilution ranging from 50 µmol/L substrate, Boc-Lys(TFA)-AMC (Bachem), to 780 nmol/L, was prepared in an assay buffer containing 0.1 mg/mL trypsin. The enzymatic reaction was initiated by the addition of 10 nmol/L KDAC8. […] The data points were plotted against time and blank corrected. For the determination of Michaelis-Menten parameters, a linear regression analysis of the initial slope (vi) of each curve was performed. Slopes were transformed into rates of AMC product formation using a calibration curve with different AMC concentrations. The obtained enzyme conversion rates were plotted against the respective substrate concentration and fitted to the Michaelis-Menten function using GraphPad Prism software. The turnover number (kcat) was calculated as
where vi is the substrate conversion rate and E is the enzyme concentration. All solutions were pre-incubated at 30°C.

[2] = system: trypsin; assay: Trypsin inhibition counter-assay (Bz-Arg-PNA); format: biochemical; conditions: 0.1 mg/mL trypsin, 400 µmol/L Bz-Arg-PNA, any applied concentration
Protocol: where EA stands for the enzyme activity at a given ligand concentration x, Emax and E0 are the enzyme activities without ligand and under complete inhibition, respectively. IC50 is the ligand concentration at which half of the enzyme activity is inhibited and h is a measure of the steepness of the dose-response curve. […] All solutions were pre-incubated at 30°C. The two-step IC50 determination has been described previously. In short: KDAC8 was incubated with the respective ligands, and the enzymatic reaction was started by the addition of 20 µmol/L Boc-Lys(TFA)-AMC substrate (Bachem). […]. In this endpoint assay, the fluorescence signal was correlated to […] and normalized with a positive control without ligand. Data analysis was performed as described above. For IC50 determination due to trypsin inhibition, the basic IC50 procedure was identical. In the assay 0.1 mg/mL trypsin and 400 µmol/L Bz-Arg-PNA (Bachem) were used. The change in substrate absorbance was recorded in a microplate reader (Spark®, Tecan) at 405 nm. In this endpoint assay, the absorbance signal was correlated to […] and normalized with a positive control without ligand. Data analysis was performed as described above.

[3] = target: T1, human KDAC8; assay: Two-step endpoint KDAC8 activity assay, IC50 determination; format: biochemical; design: full-length human KDAC8 was produced in E. coli BL21 (DE3); His6-SUMO (N, cleaved yes); made in house; host or cells: E. coli BL21 (DE3), pET14b vector; conditions: 20 µmol/L Boc-Lys(TFA)-AMC, stopped with SATFMK, trypsin development, n = 3
[4] = target: T1, human KDAC8; assay: Progress curves of continuous KDAC8 assay: relative KDAC8 activity after 5,000 s (stabilization curves); conditions: ratio of late-stage to early-stage slopes, normalized to free KDAC8
Protocol: The measurements were carried out in a black 96-well half-area microtiter plate (Greiner) at 30°C in assay buffer (see above). The respective ligand was diluted in Master Mix (see above) and binding kinetics were initiated by the addition of 10 nmol/L KDAC8. […] All solutions were pre-incubated at 30°C. Slopes were calculated for the early-stage (1,000 s to 2,000 s) and the late-stage (5,000 s to 6,000 s) using linear regression. The relative KDAC8 activity in the presence of different inhibitor concentrations was calculated as the ratio of the late-stage and early-stage slopes and normalized to free KDAC8 enzyme.

[5] = target: T1, human KDAC8; assay: Thermal shift assay (SYPRO orange melting curves); format: binding; design: full-length human KDAC8 was produced in E. coli BL21 (DE3); His6-SUMO (N, cleaved yes); made in house; host or cells: E. coli BL21 (DE3), pET14b vector; conditions: for ΔTm at 100 µM: read-out: ΔTm (thermal stabilization of KDAC8)
Protocol: By utilizing a QuantStudio™ 5 real-time quantitative polymerase chain reaction (qPCR) system (Thermo Fisher Scientific), protein melting curves with SYPRO® orange as fluorescence dye were generated. […] A DMSO control without ligand was utilized as a positive control. After mixing the components, the samples were incubated at 30°C for 1 h in the real-time qPCR system to assure binding equilibrium. […] The fluorescence signal was plotted against the temperature. The melting point was calculated as the point of inflection of the first derivative using protein thermal shift software (Thermo Fisher Scientific).

[6] = target: T1, human KDAC8; assay: Continuous (one-step) KDAC8 enzyme activity assay, IC50 determination; format: biochemical; design: full-length human KDAC8 was produced in E. coli BL21 (DE3); His6-SUMO (N, cleaved yes); made in house; host or cells: E. coli BL21 (DE3), pET14b vector; conditions: for IC50: 10 nmol/L KDAC8, 60 min pre-incubation at 30°C, 20 µmol/L Boc-Lys(TFA)-AMC, 0.1 mg/mL trypsin, mean ± SD, n = 3; for Inhibition mode: classification of mode of action on KDAC8; for Time-dependence of IC50 values: pre-incubation times 5 min to 60 min, 100 nmol/L KDAC8
[7] = system: KDAC11; conditions: cited from earlier work
[8] = 100 µmol/L inhibitor, 12 µmol/L KDAC8, 1 h at 30°C before melting

SMILES | Km ([1]; assay buffer (low salt), 10 nmol/L KDAC8, 30°C) [µM] | kcat ([1]; assay buffer) [s⁻¹] | Effect on trypsin activity [2] | IC50 [3] [nM] | Stabilization of KDAC8 activity (relative KDAC8 activity after 5,000 s vs free enzyme) [4] | ΔTm (thermal stabilization of KDAC8) [5, 8] [°C] | ΔTm at 100 µM [5, 8] [°C] | IC50 [6] [nM] | Inhibition mode [6] | Time-dependence of IC50 values [6] | Stabilization of KDAC11 [7] | ΔTm at 100 µM [5] [°C] | Time to establish binding equilibrium with KDAC8 ([6]; deduced from unchanged IC50 at shortest pre-incubation time)
Cc1cc(=O)oc2cc(NC(=O)[C@H](CCCCNC(=O)C(F)(F)F)NC(=O)OC(C)(C)C)ccc12 [Boc-Lys(TFA)-AMC, tert-butyl N-[(1S)-1-[(4-methyl-2-oxo-chromen-7-yl)carbamoyl]-5-[(2,2,2-trifluoroacetyl)amino]pentyl]carbamate] | 8.9 ± 1.6 | 0.034 ± 0.002 | – | – | – | – | – | – | – | – | – | – | –
CCN1C(=O)C=CC1=O [NEM, N-ethylmaleimide] | – | – | no effect against trypsin | 780 ± 180 | do not preserve the relative KDAC8 activity | 4.58 ± 0.26 | 4 to 5 | 320 ± 90 | Covalent inactivation | significant changes in IC50-values over time | – | – | –
O=C(CCCCCCC(=O)Nc1ccccc1)NO [SAHA, suberoylanilide hydroxamic acid] | – | – | – | – | – | – | – | – | Fast reversible binding | no time-dependent change in IC50-values | capable of stabilizing KDAC11 | 8.5 ± 0.06 | less than 5 min
O=[N+]([O-])c1ccc(CCS(=O)(=O)c2nc(Cl)ns2)cc1 [TJ-19-29, 3-chloro-5-[2-(4-nitrophenyl)ethanesulfonyl]-1,2,4-thiadiazole] | – | – | no effect against trypsin | 120 ± 40 | do not preserve the relative KDAC8 activity | 4.4 ± 0.3 | 4 to 5 | 30 ± 9 | Covalent inactivation | – | – | – | –
CC(/C=C/C(=O)NO)=C\[C@H](C)C(=O)c1ccc(N(C)C)cc1 [TSA, trichostatin A] | – | – | – | – | – | – | – | – | Fast reversible binding | – | – | 11.96 ± 0.06 | –
